# Source: the Deep4Chem optical property database
# Assay: solvent given as SMILES
structure (smiles),measurement,setting,value
O=c1c2ccccc2n2c3ccccc3c(=O)c3cc(-c4ccccc4)cc1c32,emission maximum,in CC#N,475 nm
same,emission maximum,in CCCCCC,447 nm
same,emission maximum,in CCCCOCCCC,454 nm
same,emission maximum,in CCOC(C)=O,464 nm
same,emission maximum,in CN(C)C=O,477 nm
same,emission maximum,in Cc1ccccc1,464.98 nm
same,emission maximum,in c1cc(-c2cccc(-n3c4ccccc4c4ccccc43)c2)cc(-n2c3ccccc3c3ccccc32)c1,472 nm
same,emission maximum,in c1cc(-n2c3ccccc3c3ccccc32)cc(-n2c3ccccc3c3ccccc32)c1,472 nm
CN(C)c1ccc(N(C)C)cc1,emission maximum,in C1CCCCC1,394.48 nm
CCN(CC)c1ccc2cc(-c3csc(NC(C)=O)c3C#N)c(=O)oc2c1,emission maximum,in C1CCOC1,457 nm
same,emission maximum,in CO,477 nm
same,emission maximum,in CS(C)=O,479 nm
same,emission maximum,in Cc1ccccc1,448 nm
same,emission maximum,in ClCCl,463 nm
O=c1oc2ccc3cccc4c(O)c(Cl)c(c1Cl)c2c34,emission maximum,in CC1CCCO1,500 nm
CCCCCCCCCCCCn1cccc1/C=C/c1cc(OCCCC)c(/C=C/c2cccn2CCCCCCCCCCCC)cc1OCCCC,emission maximum,in Cc1ccccc1,472 nm
CC1=c2c3c4cccc5cccc(c=3c(C)[n+]2[B-](F)(F)n2c(C)c3cc6c(-c7ccccc7)c7c(c(-c8ccccc8)c6cc3c21)-c1cccc2cccc-7c12)c54,emission maximum,in ClCCl,695 nm
COc1ccc(C2=CC(c3ccccc3)=C(c3ccccc3)C2)c2ccccc12,emission maximum,in ClCCl,479 nm
CCCCCCCCN1c2ccc(C#Cc3ccc(C(F)(F)F)cc3)cc2Sc2cc(C=O)ccc21,emission maximum,in C1CCOC1,512 nm
same,emission maximum,in CC#N,534 nm
same,emission maximum,in CCCCCC,490 nm
same,emission maximum,in CO,500 nm
same,emission maximum,in CS(C)=O,539 nm
same,emission maximum,in Cc1ccccc1,509 nm
same,emission maximum,in ClC(Cl)Cl,535 nm
c1ccc(Nc2nc(Nc3ccccc3)nc(Nc3ccc4cc5ccccc5cc4c3)n2)cc1,emission maximum,in C1COCCO1,442 nm
same,emission maximum,in CC#N,441 nm
same,emission maximum,in CCCCOCCCC,441 nm
same,emission maximum,in CCOC(C)=O,440 nm
COC(=O)C(NC(=O)OC(C)(C)C)c1ccc2oc(-c3cc(OC)c(OC)cc3OC)nc2c1 (stereo not drawn),emission maximum,in CC1CCCCC1,357 nm
same,emission maximum,in CC#N,383 nm
same,emission maximum,in CO,389 nm
CC(C)[Si](C#Cc1c2ccccc2c(C#C[Si](C(C)C)(C(C)C)C(C)C)c2nc3cc4c(cc3nc12)C1c2ccccc2C4c2ccccc21)(C(C)C)C(C)C,emission maximum,in CCCCCC,568 nm
same,emission maximum,in ClCCl,593 nm
CCCCCCCCN1c2ccccc2Sc2cc(/C=C/c3ccc(N(c4ccc(/C=C/c5ccc6c(c5)Sc5ccccc5N6CCCCCCCC)cc4)c4ccc(/C=C/c5ccc(/C=C/c6ccc(N(c7ccc(/C=C/c8ccc(N(c9ccccc9)c9ccccc9)cc8)cc7)c7ccc(/C=C/c8ccc(N(c9ccccc9)c9ccccc9)cc8)cc7)cc6)c6nsnc56)cc4)cc3)ccc21,emission maximum,in C1CCOC1,653 nm
same,emission maximum,in CCOC(C)=O,646 nm
same,emission maximum,in CN(C)C=O,749 nm
same,emission maximum,in Cc1ccccc1,620 nm
same,emission maximum,in ClC(Cl)Cl,668 nm
same,emission maximum,in ClCCl,708 nm
CC(C)[Si](C#Cc1c2ccccc2c(C#C[Si](C(C)C)(C(C)C)C(C)C)c2nc3c4ccccc4c(=O)c4ccccc4c3nc12)(C(C)C)C(C)C,emission maximum,in ClCCl,544 nm
CC(C)(C)c1ccc(-n2c(-c3ccc(-c4ccc(N(c5ccccc5)c5ccccc5)cc4)cc3)nc3c4ccccc4c4ccccc4c32)cc1,emission maximum,in ClCCl,442 nm
COc1ccc(-c2c3cc4ccccc4cc3c(C#Cc3ccccc3)c3cc4ccccc4cc23)cc1,emission maximum,in ClCCl,697 nm
Cc1ccc2c(c1)c1cc(C)ccc1n2-c1c(C#N)c(-n2c3ccc(C)cc3c3cc(C)ccc32)c(-n2c3ccc(C)cc3c3cc(C)ccc32)c(C#N)c1-n1c2ccc(C)cc2c2cc(C)ccc21,emission maximum,in Cc1ccccc1,561 nm
CC(C)(C)c1ccc2c(c1)c1cc(C(C)(C)C)ccc1n2-c1ccc(S(=O)(=O)c2ccc(-n3c4ccc(C(C)(C)C)cc4c4cc(C(C)(C)C)ccc43)cc2)cc1,emission maximum,in Cc1ccccc1,404 nm
same,emission maximum,in O=P(c1ccccc1)(c1ccccc1)c1ccccc1Oc1ccccc1P(=O)(c1ccccc1)c1ccccc1,423 nm
O=c1oc2cccc3c4cccc5ccc6c7ccccc7c1c(c23)c6c54,emission maximum,in C1CCOC1,446 nm
CCCCCCCCOc1ccc(-c2c3c4n(c(-c5ccc(OCCCCCCCC)cc5)c3c3n2[B-](F)(F)[n+]2c(ccc5cc(C(C)(C)C)ccc52)C=3C#N)[B-](F)(F)[n+]2c(ccc3cc(C(C)(C)C)ccc32)C=4C#N)cc1,emission maximum,in ClC(Cl)Cl,773 nm
CCCCN(CCCC)c1ccc2c(c1)C#CC#Cc1cc(C(F)(F)F)ccc1C#Cc1cc(c3cc1C#Cc1ccc(N(CCCC)CCCC)cc1C#CC#Cc1cc(C(F)(F)F)ccc1C#C3)C#C2,emission maximum,in ClCCl,558 nm
same,emission maximum,in c1ccccc1,522 nm
CC1=CC(C)=[N+]2C1=C(c1ccc(N3CCCCC3)cc1)c1c(C)cc(C)n1[B-]2(F)F,emission maximum,in C1CCOC1,515 nm
same,emission maximum,in CC#N,511 nm
same,emission maximum,in CC(=O)C(C)(C)C,516 nm
same,emission maximum,in CC(C)=O,515 nm
same,emission maximum,in CCCCCC,511 nm
same,emission maximum,in CCOC(C)=O,515 nm
same,emission maximum,in CO,514 nm
CCCC[Si](C)(C)c1cccc2ccccc12,emission maximum,in C1CCCCC1,329 nm
Cn1c(=O)c(/N=N/c2ccc(Nc3ccc([N+](=O)[O-])cc3S(=O)(=O)O)cc2)c(O)c2ccccc21,emission maximum,in C1CCOC1,615 nm
same,emission maximum,in CC(C)=O,617 nm
same,emission maximum,in CCOC(C)=O,610 nm
same,emission maximum,in CO,619 nm
same,emission maximum,in CS(C)=O,622 nm
same,emission maximum,in Cc1ccccc1,605 nm
same,emission maximum,in ClCCl,617 nm
same,emission maximum,in O,636 nm
COc1ccc2cc(-c3ccccc3CC#N)c(=O)oc2c1,emission maximum,in ClC(Cl)Cl,409 nm
Brc1ccc(/C=C/c2cnc3ccccc3n2)cc1,emission maximum,in ClCCl,455 nm
